Patent publication US4617187A, “Therapeutic method for treating radiation ulcers” (Eisai Co., Ltd., priority 1983, dated 1986)
Entries after “also recorded” stand apart in the source; their conditions may differ.

Experiments:
skin [1] = assay: Primary skin irritation test; assay type: in vivo; conditions: 1% in Squalane
skin [2] = assay: Cumulative skin irritation test; assay type: in vivo; conditions: 1% in Squalane
Blepharoirritation test = assay type: in vivo; conditions: 1% in Squalane
skin [3] = assay: Phototoxicity test; assay type: in vivo
skin [4] = assay: Challenge test (Adjuvante & Patch Method); assay type: in vivo; conditions: Induction: 5% in Acetone
Text: |Challenge Induction: 5% Acetone

skin [5] = assay: Photochallenge (optical challenge) test (Adjuvante Strip method); assay type: in vivo; conditions: Induction: 10% in Acetone
Text: |Photo- Induction: 10% Acetone

skin [6] = assay: Patch test; assay type: in vivo; conditions: 1% in Squalane
Wistar rats [7] = assay: Subacute toxicity, peroral, rats; assay type: in vivo; conditions: peroral 40, 200 and 1,000 mg/kg/day, 5 weeks, male and female Wistar rats
Procedure: (§1) Ubidecarenone was perorally administered at 40, 200 and 1,000 mg/kg/day to male and female Wistar rats continuously over a period of 5 weeks and also at 60 and 600 mg/kg/day to male and female rabbits continuously over a period of 23 days.

rabbits = assay: Subacute toxicity, peroral, rabbits; assay type: in vivo; conditions: peroral 60 and 600 mg/kg/day, 23 days, male and female rabbits
Procedure: as §1

Wistar rats [8] = assay: Chronic toxicity, peroral, rats; assay type: in vivo; conditions: forced peroral 6, 60 and 600 mg/kg/day, 26 weeks, female and male Wistar rats
Procedure: Ubidecarenone was forcedly and perorally administered at 6, 60 and 600 mg/kg/day to female and male Wistar rats continuously over a straight period of 26 weeks.

radiation ulcer = assay: Case 2: treatment of radiation ulcer of lower abdomen after cervical cancer radiation; assay type: in vivo, patient
Text: This patient was subjected to postoperative radiation for the treatment of cervical cancer 18 years before. […] In the Case, the hyperbaric oxygen therapy, zinc sulfate, injectable glutathione, injectable intaserine and Bendazac ointment were applied intermittently in combination. […] Thus, the coating of a therapeutic preparation to be described in Example 1, which pertains to this invention, was initiated.

skin [9] = assay: Stability and irritation when applied to the skin (general statement)
radiation ulcers [10] = assay: Treatment of radiation ulcers (general statement); assay type: in vivo; conditions: administration to an ulcerated site
[11] = cited from earlier work
cardiac muscle = conditions: known action, cited from earlier work
radiation ulcers [12] = assay: Case 1: treatment of ulcer in irradiated chest wall after breast cancer; assay type: in vivo, patient; conditions: Case 1, after radiotherapy 40 Gy with oily bleomycin and carmofur ointment; peroral zinc sulfate and injection of intaserine to facilitate wound healing
Text: Person, The patient underwent a surgery on […] left breast cancer. It recurred in their left chest wall seven years later, resulting in the formation of a carcinomatous ulcer. This carcinomatous ulcer became resistant to the cryosurgery and carcinostatic chemotherapy, leading to need for the radiotherapy. The patient was exposed to a total radiation dose of 40 Gy while using oily bleomycin and carmofur ointment in combination with a view toward enhancing the effects of the radiotherapy. […] However, they fell down accidently at this stage and the wound was traumatized and ulcerated again. Thus, cythocrome c was injected and at the same time, Bendazac ointment was applied. […] At this stage, the coating of a therapeutic preparation to be described in Example 1, which pertains to the present invention, was started.

[13] = Case 2, prior treatment applied intermittently in combination, with hyperbaric oxygen therapy

In the case of `COC1=C(OC)C(=O)C(C/C=C(\C)CC/C=C(\C)CC/C=C(\C)CC/C=C(\C)CC/C=C(\C)CC/C=C(\C)CC/C=C(\C)CC/C=C(\C)CC/C=C(\C)CCC=C(C)C)=C(C)C1=O` [Ubidecarenone], the “Primary irritation, Conclusion” value (skin [1]) is reported as “Little skin irri-”, the “Primary irritation, Results” value (skin [1]) is reported as 0.1 and the “Cumulative skin irritation, Conclusion” value (skin [2]) is reported as “Little skin irri-”. For the same molecule, the “Cumulative skin irritation, Results” value (skin [2]) was 0.3, the “Blepharoirritation, Conclusion” value (Blepharoirritation test) was “Little blepharo-” and the “Phototoxicity, Conclusion” value (skin [3]; 1% in Squalane) was “Little phototoxicity”. The “Phototoxicity, Conclusion” value (skin [3]; 10% in Squalane) was “Little phototoxicity”, the “Challenge, Conclusion” value (skin [4]; challenge 1% in Acetone) was “Little challenge” and the “Challenge, Results” value (skin [4]; challenge 1% in Acetone) was 0/10. For the same molecule, the “Challenge, Conclusion” value (skin [4]; challenge 5% in Acetone) was “Little challenge”, the “Challenge, Results” value (skin [4]; challenge 5% in Acetone) was 0/10 and the “Photochallenge, Conclusion” value (skin [5]; challenge 10% in Acetone) was “Little photo-”. For the same molecule, the “Photochallenge, Results” value (skin [5]; challenge 10% in Acetone) was 0/5, the “Photochallenge, Conclusion” value (skin [5]; challenge conc. 0.5 in Acetone) was “Little photo-” and the “Photochallenge, Results” value (skin [5]; challenge conc. 0.5 in Acetone) was 0/5. For the same molecule, the “Photochallenge, Conclusion” value (skin [5]; challenge conc. 1 in Acetone) was “Little photo-”, the “Photochallenge, Results” value (skin [5]; challenge conc. 1 in Acetone) was 0/5 and the “Photochallenge, Conclusion” value (skin [5]; challenge conc. 2 in Acetone) was “Little photo-”. The “Photochallenge, Results” value (skin [5]; challenge conc. 2 in Acetone) was 0/5, the “Photochallenge, Conclusion” value (skin [5]; challenge conc. 5 in Acetone) was “Little photo-” and the “Photochallenge, Results” value (skin [5]; challenge conc. 5 in Acetone) was 0/5. For the same molecule, the “Patch test, Conclusion” value (skin [6]) was “Little skin irri-”, the “Patch test, Results” value (skin [6]) was 0/54 and the “general appearance, blood, urine test and morphological observation (visual and histological) vs control” value (Wistar rats [7]) was “No differences were observed”. For the same molecule, the “general appearance, blood, urine test and morphological observation (visual and histological) vs control” value (rabbits) was “No differences were observed”, the “general appearance, blood, urine test and morphological observation (visual and histological) vs control” value (Wistar rats [8]) was “no differences were observed” and the “change of the ulcer” value (radiation ulcer; Case 2, oral ubidecarenone therapy, 2 months) was “no change was observed as to the ulcer”. The “irritation to the skin” value (skin [9]) was “little irritation to the skin”, the “stability when applied to the skin” value (skin [9]) was “good stability” and the “curing of radiation ulcers” value (radiation ulcers [10]) was “excellent curing results; also recorded: radiation ulcers can be successfully cured”. The solubility in oil ([11]; oil) was “oil-soluble”, the “solubility in water or methanol” value ([11]; water or methanol) was “hardly soluble” and the ATP-yielding function (cardiac muscle; cardiac muscle in an ischemic state) was “maintain the ATP-yielding function at a high level even when the cardiac muscle is in an ischemic state”. The “disorders of ischemic cardiac muscle tissue” value (cardiac muscle) was “can reduce disorders, which the tissue of ischemic cardiac muscle would develop”, the “drop of heart contraction function” value (cardiac muscle) was “improve the drop of heart contraction function” and the “percentage oxygen utilization of cardiac muscle” value (cardiac muscle) was “can improve the percentage oxygen utilization of cardiac muscle”.
In the case of `N[C@@H](CCC(=O)N[C@@H](CS)C(=O)NCC(=O)O)C(=O)O` [glutathione], the “change of the ulcer” value (radiation ulcer; [13]) is reported as “the ulcer was not improved”.
With `O=S(=O)([O-])[O-].[Zn+2]` [zinc sulfate] the ulcer outcome (radiation ulcers [12]) was “the ulcer became cancer-free and an eschar was produced” and the “change of the ulcer” value (radiation ulcer; [13]) was “the ulcer was not improved”.
